# Test results from PMC12736150 (Pharmaceuticals, 2025).
# pIC50: −log10 of the molar value. Read-outs that look alike come from different tables or passages of the source.
# Legend:
# [1] = test system: MPXV strain MOH-NRC-0002/2022, clade II lineage A.2.1; experiment: microbe, parasite or virus in culture; conditions: Monkeypox virus
# [2] = in vitro; conditions: African green monkey
# [3] = test system: MPXV strain MOH-NRC-0002/2022, clade II lineage A.2.1; experiment: in vitro; conditions: African green monkey, SI (selectivity safety index = CC50/IC50)
# [4] = test system: MPXV strain MOH-NRC-0002/2022, clade II lineage A.2.1
# [5] = test system: Vero-E6 cells
# [6] = test system: MPXV lineage responsible for the 2022 outbreak; conditions: in vivo; cited from earlier work
# [7] = test system: clade I or clade II MPXV infection; conditions: human, in vivo; cited from earlier work
# [8] = test system: Zr-599 and Liberia strains of MPXV; conditions: cited from earlier work
Compound,"pIC50 ([1]; Vero C1008, 72 h)",CC50 [2] [µM],selectivity ratio [3],also measured
C=C1[C@H](CO)[C@@H](O)C[C@@H]1n1cnc2c(=O)[nH]c(N)nc21 [Entecavir],4.55,336,12,antiviral activity against MPXV (in words) [4]: moderate anti-Mpox activity
CCOC(=O)C1=C[C@@H](OC(CC)CC)[C@H](NC(C)=O)[C@@H](N)C1 [Oseltamivir],4.23,369,4.6,CC50 ([5]; African green monkey): 269 µM
C[C@@H]1CCO[C@H]2Cn3cc(C(=O)NCc4ccc(F)cc4F)c(=O)c(O)c3C(=O)N12 [Dolutegravir],4.69,160,7.82,antiviral activity against MPXV (in words) [4]: moderate antiviral activity
O=C(NN1C(=O)[C@@H]2[C@@H]3C=C[C@@H]([C@H]4C[C@@H]34)[C@@H]2C1=O)c1ccc(C(F)(F)F)cc1 [Tecovirimat],,,,survival rates [6]: enhanced the survival rates; lesion resolution time [7]: did not reduce lesion resolution time; safety in randomized clinical trials [7]: safe
COC(=O)N[C@H](C(=O)N1CCC[C@H]1c1nc(-c2ccc(-c3ccc(-c4c[nH]c([C@@H]5CCCN5C(=O)[C@@H](NC(=O)OC)C(C)C)n4)cc3)cc2)c[nH]1)C(C)C [Daclatasvir],3.71,386,1.99,
CC(C)OC(=O)[C@H](C)N[P@](=O)(OC[C@H]1O[C@@H](n2ccc(=O)[nH]c2=O)[C@](C)(F)[C@@H]1O)Oc1ccccc1 [Sofosbuvir],3.33,286,0.61,
NC(=O)c1ncn([C@@H]2O[C@H](CO)[C@@H](O)[C@H]2O)n1 [Ribavirin],3.84,262,1.83,
CCC(CC)COC(=O)[C@H](C)N[P@](=O)(OC[C@H]1O[C@@](C#N)(c2ccc3c(N)ncnn23)[C@H](O)[C@@H]1O)Oc1ccccc1 [Remdesivir],5.00,503,,
Cc1cn([C@H]2C[C@H](N=[N+]=[N-])[C@@H](CO)O2)c(=O)[nH]c1=O [Zidovudine],3.91,282,2.29,antiviral activity against MPXV (in words) [4]: limited activity
Tenofovir disoproxil,,,,CC50 [5]: 302 µM; pIC50 [4]: 4.17; SI (selectivity safety index = CC50/IC50) [4]: 4.50
CC(C)[C@H](N)C(=O)OCCOCn1cnc2c(=O)[nH]c(N)nc21 [Valaciclovir],4.13,404,5.42,
CC(C)[C@H](N)C(=O)OCC(CO)OCn1cnc2c(=O)nc(N)[nH]c21 (stereo partly shown) [Valganciclovir],4.04,494,5.36,
NC(=O)c1nc(F)c[nH]c1=O [Favipiravir],4.08,283,3.41,
CCN(CC)CCCC(C)Nc1ccnc2cc(Cl)ccc12 (stereo not shown) [Chloroquine],3.99,253,2.47,
Nc1nc(NC2CC2)c2ncn([C@H]3C=C[C@@H](CO)C3)c2n1 [Abacavir],4.22,328,5.46,
CC(C)C(=O)OC[C@H]1O[C@@H](n2ccc(NO)nc2=O)[C@H](O)[C@@H]1O [Molnupiravir],5.24,111,,pIC50 [8]: ~5.28; pIC50 [4]: 5.24; antiviral activity against MPXV (in words) [4]: moderate anti-Mpox activity
Nc1nc2c(ncn2CCC(CO)CO)c(=O)[nH]1 [Penciclovir],4.15,280,3.95,pIC50 ([1]; Vero C1008): 4.15
Nc1ccn([C@@H]2CS[C@H](CO)O2)c(=O)n1 [Lamivudine],,410,,
NC12CC3CC(CC(C3)C1)C2 [Amantadine],4.43,570,15.2,SI (selectivity safety index = CC50/IC50) ([4]; African green monkey): 15.22
Nc1nc2c(ncn2COCCO)c(=O)[nH]1 [Acyclovir],,332,,
CCN(CCO)CCCC(C)Nc1ccnc2cc(Cl)ccc12 (stereo not shown) [Hydroxychloroquine],4.40,296,7.41,antiviral activity against MPXV (in words) [4]: moderate antiviral activity
CC(=O)N[C@H]1[C@H]([C@H](O)[C@H](O)CO)OC(C(=O)O)=C[C@@H]1N=C(N)N [Zanamivir],3.72,359,1.9,
COC[C@H]1C[C@@H](c2ncc(-c3ccc4c(c3)COc3cc5c(ccc6nc([C@@H]7CC[C@H](C)N7C(=O)[C@@H](NC(=O)OC)C(C)C)[nH]c65)cc3-4)[nH]2)N(C(=O)[C@H](NC(=O)OC)c2ccccc2)C1 [Velpatasvir],3.48,316,0.95,
Cc1ccnc2c1NC(=O)c1cccnc1N2C1CC1 [Nevirapine],3.97,277,2.61,
